This is an account of results in publication PMC10535741, “Styrylpyridinium Derivatives for Fluorescent Cell Imaging” (Pharmaceuticals, 2023).

SMILES strings stand for the structures. Read-outs that look alike come from different tables or passages of the source.

Series [1] is described as follows: Basal cytotoxicity, neutral red uptake (NRU) assay, with LD50 estimated from IC50. The format is cell-based. To be noted: mouse. How it is done:
(§1) The evaluation of the in vitro cytotoxicity (IC50, half maximal inhibitory concentration) of the abovementioned compounds and their structural derivatives was assessed using the standard colorimetric 3-(4,5-dimethylthiazol-2-yl)-2,5-diphenyltetrazolium bromide (MTT) assay on two monolayer tumour cell lines, namely HT-1080 (human connective tissue fibrosarcoma) and MH-22A (mouse hepatocarcinoma). Additionally, the impact of the compound on non-cancerous “normal” cells—mouse fibroblasts (NIH3T3)—was estimated in order to measure the basal toxicity (LD50, median lethal dose). The obtained results were used for investigation of the structure–activity relationships and exploration of the effect of substituents on cellular response and toxicity. The estimated LD50 gives information regarding the compound properties and could potentially be used to select promising compounds by providing a starting dose for in vivo experiments.
To assess basal cytotoxicity, the neutral red uptake (NRU) assay was conducted following a modified version of the standard protocol of Stokes’ [71], as validated by the NICEATM-ECVAM study. The NRU cytotoxicity assay determines the ability of viable cells to incorporate and bind a supravital dye, neutral red (NR).
NIH3T3 cells (9000 cells/well) were cultured in 96-well plates in DMEM medium supplemented with 5% FBS for 24 h. Subsequently, the cells were exposed to the test compounds over a range of seven concentrations (1000 µg/mL, 316 µg/mL, 100 µg/mL, 31 µg/mL, 10 µg/mL, 3.0 µg/mL, and 1.0 µg/mL) for 24 h. Untreated cells were used as a control. After the incubation period, the medium was removed from all plates and a solution of NR was added (250 µL, 0.05 mg/mL NR in DMEM 24 h pre-incubated at 37 °C and then filtered before use through a 0.22 µm syringe filter). The plates were incubated for 3 h, followed by three washes with phosphate-buffered saline (PBS). The cells were then treated with a mixture of ethanol (50%) and water (49%) supplemented with 1% acetic acid. The absorbance of NR was measured using a spectrophotometer multiplate reader (Infinite M1000; Tecan Austria GmbH, Salzburg, Austria) at 540 nm. The optical density (OD) was then calculated using the following formula: ODtreated cells×100/ODcontrol cells.
The IC50 values were calculated using the program Graph Pad Prism® 3.0.
In vitro test results were employed to estimate the starting dose for acute oral systemic toxicity tests in rodents (LD50). The LD50 value was calculated using the in vitro IC50 value and a following formula: logLD50(mM/kg)=0.439×logIC50(mM)+0.621
The value was then converted to mg/kg and the compounds classified into four toxicity categories. Category 1 (highly toxic): LD50 ≤ 5 mg/kg; Category 2 (moderately toxic): 5 < LD50 ≤ 50 mg/kg; Category 3 (slightly toxic): 50 < LD50 ≤ 300 mg/kg; Category 4 (practically non-toxic): 300 < LD50 ≤ 2000 mg/kg.

Series [2] concerns HT-1080 (human connective tissue fibrosarcoma). As to the kind of experiment: MTT cytotoxicity assay, HT-1080. Format: cell-based. To be noted: for IC50: Homo sapiens, read-out: IC50 (µg/mL) HT-1080. Here is the method: as §1
The HT-1080 (human connective tissue fibrosarcoma, ATCC® CCL-121™), MH-22A (mouse hepatocarcinoma, ECACC Cat. No. 96121721), A-549 (human lung carcinoma, ATCC® CCL-185™), NIH3T3 (Swiss Albino mouse embryo fibroblast, ECACC Cat. No. 93061524), Hek293 (human embryonic kidney, ATCC® CRL-1573™), BHK-21 (Syrian hamster kidney, ATCC® CCL-10™), A-431 (human epidermoid carcinoma, ATCC® CRL-1555™), Saos-2 (human osteosarcoma, ATCC® HTB-85™), HeLa (human epitheloid cervix carcinoma, ATCC® CCL-2™), U937 (human myeloid leukaemia, ATCC® CRL-1593.2™), C6 (rat glioma, ATCC® CCL-107™), and B16-F10 (murine melanoma, ATCC® CRL-6475™) cell lines were obtained from the American Type Culture Collection (ATCC) and European Collection of Authenticated Cell Cultures (ECACC).
HT-1080, MH-22A, A-549, NIH3T3, BHK-21, A-431, HeLa, and B16-F10 cells were cultured in Dulbecco’s Modified Eagle’s Medium (DMEM) with 2 mM glutamine and 10% foetal bovine serum (FBS). Hek293 cells were cultured in Eagle’s Minimum Essential Medium with 10% foetal bovine serum. U937 cells were cultured in RPMI-1640 Medium with 2 mM glutamine and 10% foetal bovine serum. C6 cells were cultured in Ham’s F12 Medium with 2 mM glutamine and 10% foetal bovine serum. Saos-2 cells were cultured in McCoy’s 5a Medium with 2 mM glutamine and 10% foetal bovine serum. The cells were incubated at 37 °C with 5% CO2, 95% air, and complete humidity. Once ~90% confluence was reached, they were detached using 0.05% trypsin/EDTA and counted. The cells were plated at optimally determined densities for the logarithmic phase of growth. These cells were then suspended at a concentration of 4000 cells/well for HT-1080, MH-22A, A-549, NIH3T3, BHK-21, A-431, HeLa, B16-F10, Hek293, and Saos-2 cells and a concentration of 9000 cells/well for U937, C6, Hek293, and GM08402 cells and added onto a 96-well plate. For background absorption, some wells remained cell free, i.e., as a blank control. Cells were incubated for 72 h at 37 °C and 5% CO2 where they were exposed to a media containing serial dilutions of the investigated compounds (n = 3). Cell viability was measured using the 3-(4,5-dimethylthiazol-2-yl)-2,5-diphenyl-tetrazolium bromide (MTT) assay. In brief, after incubating with compounds, the culture medium was removed and fresh medium with 0.2 mg/mL MTT was added to each well of the plate. After incubation (3 h, 37 °C, 5% CO2), the medium with MTT solution was removed and replaced with 200 µL DMSO and 25 µL Sorenson’s glycine buffer (glycine 0.1 M, NaCl 0.1 M, pH: 10.5 with 0.1 M NaOH). The plate was shaken for 15 min at room temperature and the optical density (OD) of the wells was determined using a multichannel spectrophotometer (Thermo Scientific Multiskan EX) at 540 nm. The quantity of the control cells was taken in calculations as 100%. The IC50 value was calculated using the program Graph Pad Prism® 3.0.

Where [3] appears, read: estimated from in vitro NRU IC50 (24 h), read-out: Basal cytotoxicity (NIH3T3) LD50 mM/kg.
Where [4] appears, read: estimated from in vitro NRU IC50 (24 h) by log LD50 = 0.439 x log IC50 + 0.621, read-out: Basal Cytotoxicity (NIH3T3) LD50.

For the compound `CCCCCCCCCCCC[n+]1ccc(C=Cc2cc(OC)c(OC)c(OC)c2)cc1.[Br-]` [Compound 6a, 4-(3,4,5-trimethoxystyryl)-N-dodecylpyridinium bromide], the LD50 at 24 h in series [1] (NIH3T3 cells, estimated from in vitro NRU IC50 (24 h) by log LD50 = 0.439 x log IC50 + 0.621, read-out: Basal Cytotoxicity (NIH3T3) LD50) was 249 ± 3 mg/kg; in series [1] (setting [3]), 500 µmol/kg. In addition, the IC50 in series [2] (HT-1080, 72 h treatment, MTT) amounted to 0.22 ± 0.06 µg/mL.
Consider `CCCCCCCCCCCCCCCC[n+]1ccc(C=Cc2cc(OC)c(OC)c(OC)c2)cc1.[Br-]` [Compound 6b], for which the “IC50 (µg/mL) HT-1080” value in series [2] (72 h treatment, MTT) is recorded as 0.18 ± 0.02 µg/mL.
For the compound `CCCCCCCCCCCCCCCC[n+]1ccc(C=CC=Cc2ccc(OC)cc2)cc1.[Br-]` [Compound 6c, 1-hexadecyl-4-(4-(4-methoxyphenyl)buta-1,3-dien-1-yl)pyridin-1-ium bromide], the LD50 at 24 h is 85 ± 7 mg/kg in series [1] (setting [4]) and 160 µmol/kg in series [1] (setting [3]). Besides, the IC50 in series [2] (HT-1080, 72 h treatment, MTT) turned out to be 0.2 ± 0.04 µg/mL.
Taken in the same sequence, the figures for `CCCCCCCCCCCC[n+]1ccc(C=Cc2cc3c4c(c2)CCCN4CCC3)cc1.[Br-]` [Compound 6d, 1-dodecyl-4-(2-(2,3,6,7-tetrahydro-1H,5H-pyrido[3,2,1-ij]quinolin-9-yl)vinyl)pyridin-1-ium bromide] were 169 ± 18 mg/kg, 300 µmol/kg and 1.4 ± 0.3 µg/mL.
With `CCCCCCCCCCCCCCCC[n+]1ccc(C=CC=Cc2cc3c4c(c2)CCCN4CCC3)cc1.[Br-]` [Compound 6e, 1-hexadecyl-4-(4-(2,3,6,7-tetrahydro-1H,5H-pyrido[3,2,1-ij]quinolin-9-yl)buta-1,3-dien-1-yl)pyridin-1-ium bromide], the LD50 at 24 h in series [1] (setting [4]) was 477 ± 11 mg/kg; in series [1] (setting [3]), 800 µmol/kg. In addition, the “times higher cytotoxicity towards HT-1080 than 6d” value in series [2] (6e versus 6d) was 1.4 times. Also, in series [2] (HT-1080, 72 h treatment, MTT), the IC50 turned out to be 1 ± 0.03 µg/mL.
With `C(=C\c1cc2c3c(c1)CCCN3CCC2)/c1cc[n+](CCC[n+]2ccc(/C=C/c3cc4c5c(c3)CCCN5CCC4)cc2)cc1` [Compound 7a], the LD50 at 24 h in series [1] (setting [4]) is 1100 ± 20 mg/kg. Moreover, the IC50 in series [2] (HT-1080, 72 h) is 2 ± 0.3 µg/mL.
Take `C(C=Cc1cc2c3c(c1)CCCN3CCC2)=Cc1cc[n+](CCC[n+]2ccc(C=CC=Cc3cc4c5c(c3)CCCN5CCC4)cc2)cc1.[Br-].[Br-]` [Compound 7b, 1,1′-(propane-1,3-diyl)bis(4-(4-(2,3,6,7-tetrahydro-1H,5H-pyrido[3,2,1-ij]quinolin-9-yl)buta-1,3-dien-1-yl)pyridin-1-ium) dibromide]: in series [1] (setting [4]), the LD50 at 24 h is 857 ± 13 mg/kg. The IC50 in series [2] (HT-1080, 72 h treatment, MTT) came to 6 ± 0.2 µg/mL.
